Experiments:
Test in all cases: Caliper, Mobility shift assay off-chip
PDPK1 (human) = PDPK1 (human) (UniProt O15530)
MERTK (human) = MERTK (human) (UniProt Q12866)
STK17A (human) = STK17A (human) (UniProt Q9UEE5)
NTRK2 (human) = NTRK2 (human) (UniProt Q16620)
PRKCD (human) = PRKCD (human) (UniProt Q05655)
BRSK1 (human) = BRSK1 (human) (UniProt Q8TDC3)
ABL2 (human) = ABL2 (human) (UniProt P42684)
GCK (human) = GCK (human) (UniProt Q12851)
[1] = system: KIT (human), P10721 [D816H]
MST1R (human) = MST1R (human) (UniProt Q04912)
STK10 (human) = STK10 (human) (UniProt O94804)
PRKX (human) = PRKX (human) (UniProt P51817)
STK3 (human) = STK3 (human) (UniProt Q13188)
Sequence of STK3 (human) (Q13188 whole entry, looked up): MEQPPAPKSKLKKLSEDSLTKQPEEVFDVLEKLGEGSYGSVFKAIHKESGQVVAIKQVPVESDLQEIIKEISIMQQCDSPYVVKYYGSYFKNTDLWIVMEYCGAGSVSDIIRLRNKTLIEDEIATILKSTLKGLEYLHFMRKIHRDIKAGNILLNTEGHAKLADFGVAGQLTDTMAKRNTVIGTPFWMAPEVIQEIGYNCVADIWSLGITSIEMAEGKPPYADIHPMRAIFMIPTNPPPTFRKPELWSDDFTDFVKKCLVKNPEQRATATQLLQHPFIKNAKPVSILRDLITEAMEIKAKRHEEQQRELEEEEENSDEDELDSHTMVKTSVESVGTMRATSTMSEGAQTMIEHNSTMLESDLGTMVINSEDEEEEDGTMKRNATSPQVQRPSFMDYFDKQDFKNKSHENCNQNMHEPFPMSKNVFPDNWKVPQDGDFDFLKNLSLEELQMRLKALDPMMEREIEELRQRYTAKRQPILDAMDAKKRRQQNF

ERBB4 (human) = ERBB4 (human) (UniProt Q15303)
[2] = system: KIT (human), P10721 [D816V]
FYN (human) = FYN (human) (UniProt P06241)
MARK2 (human) = MARK2 (human) (UniProt Q7KZI7)
CAMK4 (human) = CAMK4 (human) (UniProt Q16566)
MET (human) = MET (human) (UniProt P08581)
MKNK2 (human) = MKNK2 (human) (UniProt Q9HBH9)
[3] = system: CHEK2 (human), O96017 [I157T]
DYRK2 (human) = DYRK2 (human) (UniProt Q92630)
CAMK2G (human) = CAMK2G (human) (UniProt Q13555)
SRPK3 (human) = SRPK3 (human) (UniProt Q9UPE1)
Sequence of SRPK3 (human) (Q9UPE1 whole entry, looked up): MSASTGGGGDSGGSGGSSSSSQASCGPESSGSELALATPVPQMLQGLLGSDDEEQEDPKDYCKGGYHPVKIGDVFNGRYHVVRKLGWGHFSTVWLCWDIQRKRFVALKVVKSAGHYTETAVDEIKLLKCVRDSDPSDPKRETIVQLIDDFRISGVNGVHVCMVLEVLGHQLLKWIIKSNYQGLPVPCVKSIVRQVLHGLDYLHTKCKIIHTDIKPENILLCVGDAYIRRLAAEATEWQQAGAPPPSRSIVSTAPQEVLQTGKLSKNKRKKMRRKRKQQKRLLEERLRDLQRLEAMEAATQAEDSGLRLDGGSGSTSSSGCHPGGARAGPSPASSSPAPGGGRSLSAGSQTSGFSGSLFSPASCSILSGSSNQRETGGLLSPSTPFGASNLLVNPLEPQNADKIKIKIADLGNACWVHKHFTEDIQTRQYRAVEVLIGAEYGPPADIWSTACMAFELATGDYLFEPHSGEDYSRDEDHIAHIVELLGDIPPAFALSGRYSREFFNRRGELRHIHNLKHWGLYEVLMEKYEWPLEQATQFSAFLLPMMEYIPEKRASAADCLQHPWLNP

FRK (human) = FRK (human) (UniProt P42685)
STK4 (human) = STK4 (human) (UniProt Q13043)
Sequence of STK4 (human) (Q13043 whole entry, looked up): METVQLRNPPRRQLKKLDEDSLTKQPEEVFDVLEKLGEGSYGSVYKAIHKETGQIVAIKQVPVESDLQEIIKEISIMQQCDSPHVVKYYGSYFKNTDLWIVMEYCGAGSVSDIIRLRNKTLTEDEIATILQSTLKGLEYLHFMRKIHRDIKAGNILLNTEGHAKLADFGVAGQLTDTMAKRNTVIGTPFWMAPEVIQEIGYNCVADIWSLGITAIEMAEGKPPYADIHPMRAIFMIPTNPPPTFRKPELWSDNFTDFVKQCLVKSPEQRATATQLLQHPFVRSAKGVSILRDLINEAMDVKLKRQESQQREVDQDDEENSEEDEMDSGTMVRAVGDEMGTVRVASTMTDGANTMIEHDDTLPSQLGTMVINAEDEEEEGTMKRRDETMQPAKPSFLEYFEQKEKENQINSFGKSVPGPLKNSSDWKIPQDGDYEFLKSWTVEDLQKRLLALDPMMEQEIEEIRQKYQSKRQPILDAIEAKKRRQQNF

CDK1 CCNB1 (human) = CDK1 CCNB1 (human) (UniProt P06493+P14635)
PRKCB1 (human) = PRKCB1 (human) (UniProt P05771)
CDC42BPB (human) = CDC42BPB (human) (UniProt Q9Y5S2)
DAPK1 (human) = DAPK1 (human) (UniProt P53355)
FGFR4 (human) = FGFR4 (human) (UniProt P22455)
DCLK2 (human) = DCLK2 (human) (UniProt Q8N568)
MINK1 (human) = MINK1 (human) (UniProt Q8N4C8)
AURKA (human) = AURKA (human) (UniProt O14965)
Sequence of AURKA (human) (O14965 whole entry, looked up): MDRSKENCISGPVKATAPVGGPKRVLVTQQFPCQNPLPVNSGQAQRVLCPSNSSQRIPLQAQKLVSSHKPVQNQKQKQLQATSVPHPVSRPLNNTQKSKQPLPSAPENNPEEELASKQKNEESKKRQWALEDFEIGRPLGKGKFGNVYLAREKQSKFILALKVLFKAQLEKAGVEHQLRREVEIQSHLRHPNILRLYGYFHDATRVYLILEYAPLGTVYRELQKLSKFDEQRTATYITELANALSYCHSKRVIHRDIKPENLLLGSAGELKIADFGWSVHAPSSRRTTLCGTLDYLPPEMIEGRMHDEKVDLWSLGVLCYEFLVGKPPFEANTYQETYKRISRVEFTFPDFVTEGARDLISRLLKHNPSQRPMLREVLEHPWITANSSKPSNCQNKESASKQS

JAK2 JH1 JH2 (human) = JAK2 JH1 JH2 (human) (UniProt O60674)
Sequence of JAK2 JH1 JH2 (human) (O60674 whole entry, looked up): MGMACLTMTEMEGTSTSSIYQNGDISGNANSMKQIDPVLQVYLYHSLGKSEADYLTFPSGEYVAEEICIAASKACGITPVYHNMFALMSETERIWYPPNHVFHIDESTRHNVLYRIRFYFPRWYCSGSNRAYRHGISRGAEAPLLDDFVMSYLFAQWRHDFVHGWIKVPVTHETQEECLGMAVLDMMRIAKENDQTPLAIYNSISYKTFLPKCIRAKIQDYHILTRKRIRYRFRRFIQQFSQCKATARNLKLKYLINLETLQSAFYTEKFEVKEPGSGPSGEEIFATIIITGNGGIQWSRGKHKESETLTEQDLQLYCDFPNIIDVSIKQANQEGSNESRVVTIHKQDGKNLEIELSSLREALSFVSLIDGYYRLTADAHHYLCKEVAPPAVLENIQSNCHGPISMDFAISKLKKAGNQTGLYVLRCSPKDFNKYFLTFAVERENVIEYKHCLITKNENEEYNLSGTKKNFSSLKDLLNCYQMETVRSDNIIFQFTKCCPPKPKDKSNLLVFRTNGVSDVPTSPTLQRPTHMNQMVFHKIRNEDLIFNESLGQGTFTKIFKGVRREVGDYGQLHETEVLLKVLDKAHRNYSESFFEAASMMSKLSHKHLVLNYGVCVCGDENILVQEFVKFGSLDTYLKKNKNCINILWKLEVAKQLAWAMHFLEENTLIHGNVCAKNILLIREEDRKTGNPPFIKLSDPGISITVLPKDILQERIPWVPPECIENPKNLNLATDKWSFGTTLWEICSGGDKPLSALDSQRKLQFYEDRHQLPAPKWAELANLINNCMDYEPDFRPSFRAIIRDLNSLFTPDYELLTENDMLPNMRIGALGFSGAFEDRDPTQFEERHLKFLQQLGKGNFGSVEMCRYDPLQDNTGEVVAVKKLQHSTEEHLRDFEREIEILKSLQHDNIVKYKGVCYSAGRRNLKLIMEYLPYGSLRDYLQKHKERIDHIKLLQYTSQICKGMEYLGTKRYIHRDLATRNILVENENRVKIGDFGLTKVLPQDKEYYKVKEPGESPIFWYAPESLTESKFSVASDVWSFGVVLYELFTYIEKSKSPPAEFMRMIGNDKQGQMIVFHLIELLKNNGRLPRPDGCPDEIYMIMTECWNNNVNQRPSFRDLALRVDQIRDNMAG

TBK1 (human) = TBK1 (human) (UniProt Q9UHD2)
CAMK1 (human) = CAMK1 (human) (UniProt Q14012)
Sequence of CAMK1 (human) (Q14012 whole entry, looked up): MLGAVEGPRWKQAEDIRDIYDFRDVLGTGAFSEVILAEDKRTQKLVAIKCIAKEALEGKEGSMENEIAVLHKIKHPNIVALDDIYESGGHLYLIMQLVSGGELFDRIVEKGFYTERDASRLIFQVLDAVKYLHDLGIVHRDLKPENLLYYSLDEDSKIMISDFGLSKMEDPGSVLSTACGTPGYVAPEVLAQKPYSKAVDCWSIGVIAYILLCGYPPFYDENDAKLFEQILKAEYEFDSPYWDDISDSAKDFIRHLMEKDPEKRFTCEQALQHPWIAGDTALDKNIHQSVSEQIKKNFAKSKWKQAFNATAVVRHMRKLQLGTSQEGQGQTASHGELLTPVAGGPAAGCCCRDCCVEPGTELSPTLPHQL

INSRR (human) = INSRR (human) (UniProt P14616)
VRK2 (human) = VRK2 (human) (UniProt Q86Y07)
SGK2 (human) = SGK2 (human) (UniProt Q9HBY8)
NEK7 (human) = NEK7 (human) (UniProt Q8TDX7)

Sequence of PDPK1 (human) (O15530 whole entry, looked up): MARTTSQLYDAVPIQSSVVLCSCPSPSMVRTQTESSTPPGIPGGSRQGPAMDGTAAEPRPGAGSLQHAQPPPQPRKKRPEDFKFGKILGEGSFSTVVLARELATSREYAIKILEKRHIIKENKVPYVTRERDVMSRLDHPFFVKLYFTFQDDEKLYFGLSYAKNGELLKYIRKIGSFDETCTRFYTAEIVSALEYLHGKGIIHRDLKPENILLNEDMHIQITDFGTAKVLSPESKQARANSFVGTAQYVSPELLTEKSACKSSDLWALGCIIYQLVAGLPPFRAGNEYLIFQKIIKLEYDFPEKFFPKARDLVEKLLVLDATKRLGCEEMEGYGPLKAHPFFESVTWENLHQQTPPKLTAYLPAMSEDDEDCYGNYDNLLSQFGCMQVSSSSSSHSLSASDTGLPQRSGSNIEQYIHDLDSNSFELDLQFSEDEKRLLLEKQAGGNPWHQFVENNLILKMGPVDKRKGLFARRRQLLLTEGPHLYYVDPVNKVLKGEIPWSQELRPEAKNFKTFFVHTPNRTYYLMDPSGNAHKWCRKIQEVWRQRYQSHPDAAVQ
Sequence of MERTK (human) (Q12866 whole entry, looked up): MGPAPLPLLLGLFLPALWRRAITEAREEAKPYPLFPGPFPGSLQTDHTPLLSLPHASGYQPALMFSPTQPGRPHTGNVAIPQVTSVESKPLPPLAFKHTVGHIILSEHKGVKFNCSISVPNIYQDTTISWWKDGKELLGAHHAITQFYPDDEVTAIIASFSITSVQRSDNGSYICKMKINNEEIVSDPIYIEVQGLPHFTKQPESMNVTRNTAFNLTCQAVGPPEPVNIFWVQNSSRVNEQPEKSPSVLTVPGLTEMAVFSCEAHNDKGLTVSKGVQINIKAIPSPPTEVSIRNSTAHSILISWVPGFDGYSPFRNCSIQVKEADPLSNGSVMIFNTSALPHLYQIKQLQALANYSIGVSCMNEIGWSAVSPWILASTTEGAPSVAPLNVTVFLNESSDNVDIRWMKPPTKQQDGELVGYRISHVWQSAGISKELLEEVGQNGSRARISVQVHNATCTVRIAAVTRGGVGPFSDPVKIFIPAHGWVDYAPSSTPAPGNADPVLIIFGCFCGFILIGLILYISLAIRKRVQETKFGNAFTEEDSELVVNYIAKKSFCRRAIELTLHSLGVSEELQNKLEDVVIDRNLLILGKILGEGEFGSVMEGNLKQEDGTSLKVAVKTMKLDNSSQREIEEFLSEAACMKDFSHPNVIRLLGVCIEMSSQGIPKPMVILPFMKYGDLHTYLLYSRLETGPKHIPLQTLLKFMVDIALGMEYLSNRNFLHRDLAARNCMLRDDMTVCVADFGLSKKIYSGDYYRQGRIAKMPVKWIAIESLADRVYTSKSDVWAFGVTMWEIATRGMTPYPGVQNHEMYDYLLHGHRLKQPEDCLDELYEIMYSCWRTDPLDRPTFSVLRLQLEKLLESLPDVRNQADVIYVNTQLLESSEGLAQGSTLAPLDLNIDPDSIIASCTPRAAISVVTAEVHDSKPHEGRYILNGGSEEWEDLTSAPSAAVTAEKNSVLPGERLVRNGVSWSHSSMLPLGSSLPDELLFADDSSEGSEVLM

`CC(C)(C)c1nc2c3ccc(F)cc3c3c(=O)[nH]ccc3c2[nH]1` was tested, and the residual activity (PDPK1 (human); compound 10.0 µM) was 0% and the residual activity (MERTK (human); compound 10.0 µM) was 28%.
Work on `COc1ccc(C#Cc2ccc3ncc4ncn(-c5ccc(CCN)cc5)c4c3c2)cc1` yielded a residual activity (STK17A (human); compound 10.0 µM) of 15%, a residual activity (NTRK2 (human); compound 10.0 µM) of 23% and a residual activity (PDPK1 (human); compound 10.0 µM) of 43%. The residual activity (PRKCD (human); compound 10.0 µM) was 134%, the residual activity (BRSK1 (human); compound 10.0 µM) was 36% and the residual activity (ABL2 (human); compound 10.0 µM) was 78%. For the same molecule, the residual activity (GCK (human); compound 10.0 µM) was 17%, the residual activity ([1]; compound 10.0 µM) was 22% and the residual activity (MST1R (human); compound 10.0 µM) was 106%. The residual activity (STK10 (human); compound 10.0 µM) was 18%, the residual activity (PRKX (human); compound 10.0 µM) was 91% and the residual activity (STK3 (human); compound 10.0 µM) was 104%. It also gave a residual activity (ERBB4 (human); compound 10.0 µM) of 116%, a residual activity ([2]; compound 10.0 µM) of 92% and a residual activity (FYN (human); compound 10.0 µM) of 114%. It also gave a residual activity (MARK2 (human); compound 10.0 µM) of 108%, a residual activity (CAMK4 (human); compound 10.0 µM) of 69% and a residual activity (MET (human); compound 10.0 µM) of 17%. It also gave a residual activity (MKNK2 (human); compound 10.0 µM) of 120%, a residual activity ([3]; compound 10.0 µM) of 6% and a residual activity (DYRK2 (human); compound 10.0 µM) of 86%. It also gave a residual activity (CAMK2G (human); compound 10.0 µM) of 58%, a residual activity (MERTK (human); compound 10.0 µM) of 3% and a residual activity (SRPK3 (human); compound 10.0 µM) of 58%. It also gave a residual activity (FRK (human); compound 10.0 µM) of 90%, a residual activity (STK4 (human); compound 10.0 µM) of 40% and a residual activity (CDK1 CCNB1 (human); compound 10.0 µM) of 90%. For the same molecule, the residual activity (PRKCB1 (human); compound 10.0 µM) was 99%, the residual activity (CDC42BPB (human); compound 10.0 µM) was 111% and the residual activity (DAPK1 (human); compound 10.0 µM) was 50%. It also gave a residual activity (FGFR4 (human); compound 10.0 µM) of 44%, a residual activity (DCLK2 (human); compound 10.0 µM) of 105% and a residual activity (MINK1 (human); compound 10.0 µM) of 23%. The residual activity (AURKA (human); compound 10.0 µM) was 8%, the residual activity (JAK2 JH1 JH2 (human); compound 10.0 µM) was 106% and the residual activity (TBK1 (human); compound 10.0 µM) was 47%. The residual activity (CAMK1 (human); compound 10.0 µM) was 9%, the residual activity (INSRR (human); compound 10.0 µM) was 71% and the residual activity (VRK2 (human); compound 10.0 µM) was 115%. The residual activity (SGK2 (human); compound 10.0 µM) was 26% and the residual activity (NEK7 (human); compound 10.0 µM) was 121%.
Molecule `C[C@@H](Nc1nc2c(C#CC3CC3)c[nH]c(=O)c2c2cc(-c3cn[nH]c3)ccc12)C(C)(C)C` has a residual activity (STK17A (human); compound 1.0 µM) of 62%, a residual activity (NTRK2 (human); compound 1.0 µM) of 59% and a residual activity (PDPK1 (human); compound 1.0 µM) of 2%. For the same molecule, the residual activity (PRKCD (human); compound 1.0 µM) was 79%, the residual activity (BRSK1 (human); compound 1.0 µM) was 29% and the residual activity (ABL2 (human); compound 1.0 µM) was 104%. The residual activity (GCK (human); compound 1.0 µM) was 44%, the residual activity ([1]; compound 1.0 µM) was 9% and the residual activity (MST1R (human); compound 1.0 µM) was 98%. For the same molecule, the residual activity (STK10 (human); compound 1.0 µM) was 25%, the residual activity (PRKX (human); compound 1.0 µM) was 103% and the residual activity (STK3 (human); compound 1.0 µM) was 60%. It also gave a residual activity (ERBB4 (human); compound 1.0 µM) of 102%, a residual activity ([2]; compound 1.0 µM) of 93% and a residual activity (FYN (human); compound 1.0 µM) of 79%. For the same molecule, the residual activity (MARK2 (human); compound 1.0 µM) was 87%, the residual activity (CAMK4 (human); compound 1.0 µM) was 22% and the residual activity (MET (human); compound 1.0 µM) was 96%. For the same molecule, the residual activity (MKNK2 (human); compound 1.0 µM) was 30%, the residual activity ([3]; compound 1.0 µM) was 9% and the residual activity (DYRK2 (human); compound 1.0 µM) was 102%. It also gave a residual activity (CAMK2G (human); compound 1.0 µM) of 13%, a residual activity (MERTK (human); compound 1.0 µM) of 8% and a residual activity (SRPK3 (human); compound 1.0 µM) of 115%. The residual activity (FRK (human); compound 1.0 µM) was 92%, the residual activity (STK4 (human); compound 1.0 µM) was 30% and the residual activity (CDK1 CCNB1 (human); compound 1.0 µM) was 100%. It also gave a residual activity (PRKCB1 (human); compound 1.0 µM) of 94%, a residual activity (CDC42BPB (human); compound 1.0 µM) of 99% and a residual activity (DAPK1 (human); compound 1.0 µM) of 82%. For the same molecule, the residual activity (FGFR4 (human); compound 1.0 µM) was 105%, the residual activity (DCLK2 (human); compound 1.0 µM) was 112% and the residual activity (MINK1 (human); compound 1.0 µM) was 117%. It also gave a residual activity (AURKA (human); compound 1.0 µM) of 7%, a residual activity (JAK2 JH1 JH2 (human); compound 1.0 µM) of 106% and a residual activity (TBK1 (human); compound 1.0 µM) of 78%. It also gave a residual activity (CAMK1 (human); compound 1.0 µM) of 63%, a residual activity (INSRR (human); compound 1.0 µM) of 104% and a residual activity (VRK2 (human); compound 1.0 µM) of 111%. It also gave a residual activity (SGK2 (human); compound 1.0 µM) of 86% and a residual activity (NEK7 (human); compound 1.0 µM) of 111%.
